The values that follow come from patent publication US11738031B2, “Compositions and methods for preventing or treating muscle conditions” (The Board of Trustees of the Leland Stanford Junior …, priority 2017, dated 2023).

SMILES strings stand for the structures. “Also recorded” adds a separate entry of the source.

For assay [1], the system named is muscle stem cells (MuSCs). In words: MuSC proliferation in culture, cell number count (hemocytometer). As to conditions: ONO-AE3-208 1 μM with PGE2 10 ng/ml, 24 hr treatment. In kind it is cell-based, mouse. Here is the method:
(§1) Muscle stem cell culture, treatment and lentiviral infection: Following isolation, we resuspended MuSCs in myogenic cell culture medium containing DMEM/F10 (50:50), 15% FBS, 2.5 ng ml^−1 fibroblast growth factor-2 (FGF-2 also known as bFGF) and 1% penicillin-streptomycin. We seeded MuSC suspensions at a density of 500 cells per cm^2 surface area. We maintained cell cultures at 37° C. in 5% CO2 and changed medium daily. For PGE2, 15-PGDH inhibitor and EP4 receptor antagonist treatment studies, we added 1-200 ng/ml Prostaglandin E2 (Cayman Chemical) (unless specified in the figure legends, 10 ng/ml was the standard concentration used), and/or 1 μM EP4 antagonist (ONO-AE3-208, Cayman Chemical), or 1 μM 15-PGDH inhibitor (SW033291, Cayman Chemical) to the MuSCs cultured on collagen coated dishes for the first 24 h. The cells were then trypsinized and cells reseeded onto hydrogels for an additional 6 days of culture. All treatments were compared to their solvent (DMSO) vehicle control. For stripped serum assays, we resuspended isolated MuSCs in medium containing DMEM/F10 (50:50), 15% charcoal stripped FBS (Gibco, cat #12676011), 2.5 ng ml^−1 bFGF and 1% penicillin-streptomycin. […]
Proliferation assays: To assay proliferation, we used three different assays (hemocytometer, VisionBlue, and EdU). […] For hemocytometer cell number count, we collected cells at indicated timepoints by incubation with 0.5% trypsin in PBS for 5 min at 37° C. and quantified them using a hemocytometer at least 3 times. Additionally, we used the VisionBlue Quick Cell Viability Fluorometric Assay Kit (BioVision, catalog #K303) as a readout for cell growth in culture. Briefly, we incubated MuSCs with 10% VisionBlue in culture medium for 3 h, and measured fluorescence intensity on a fluorescence plate reader (Infinite M1000 PRO, Tecan) at Ex=530-570 nm, Em=590-620 nm. […] We quantified EdU positive cells using the MetaMorph Image Analysis software (Molecular Devices). Data analyses were blinded, where researchers performing cell scoring were unaware of the treatment condition given to sample groups analyzed. […]

In assay [2] the test system is endogenous MuSCs in TA muscle. Nature of the assay: Endogenous MuSC BLI in Pax7CreERT2;Rosa26-LSL-Luc mice after cardiotoxin injury. It is filed as in vivo, mouse. Particulars: single indomethacin injection three days post-cardiotoxin injury. The protocol:
Bioluminescence imaging: We performed bioluminescence imaging (BLI) using a Xenogen-100 system, as previously described^1,5,6. Briefly, we anesthetized mice using isofluorane inhalation and administered 120 μL D-luciferin (0.1 mmol kg^−1, reconstituted in PBS; Caliper LifeSciences) by intraperitoneal injection. We acquired BLI using a 60 s exposure at F-stop=1.0 at 5 minutes after luciferin injection. Digital images were recorded and analyzed using Living Image software (Caliper LifeSciences). We analyzed images with a consistent region-of-interest (ROI) placed over each hindlimb to calculate a bioluminescence signal. We calculated a bioluminescence signal in radiance (p s^−1 cm^−2 sr^−1) value of 10^4 to define an engraftment threshold. This radiance threshold of 10^4 is approximately equivalent to the total flux threshold in p/s reported previously. This BLI threshold corresponds to the histological detection of one or more GFP+ myofibers^1,5,6. We performed BLI imaging every week after transplantation. […]
We performed bioluminescence imaging (BLI) using a Xenogen-100 system, as previously described (24, 26, 27, 30). […] Digital images were recorded and analyzed using Living Image software (Caliper LifeSciences). We analyzed images with a consistent region-of-interest (ROI) placed over each hindlimb to calculate a bioluminescence signal. We calculated a bioluminescence signal in radiance (p s^−1 cm^−2 sr^−1) value of 10^4 to define an engraftment threshold. […]
Bioluminescent Imaging: For bioluminescence imaging (BLI), we anesthetized mice using isofluorane inhalation and administered 120 μL D-luciferin (0.1 mmol kg^−1, reconstituted in PBS; Caliper LifeSciences) by intraperitoneal injection. […] Digital images were recorded and analyzed using Living Image software (Caliper LifeSciences). We analyzed images with a consistent region-of-interest (ROI) placed over each hindlimb to calculate a bioluminescence signal. We calculated a bioluminescence signal in radiance (p s^−1 cm^−2 sr^−1) value of 10^4 to define an engraftment threshold. […]

The subject of a further assay is TA muscle. In words: In vivo muscle force at day 14 post-injury (TA). More on the design: species or system mouse. The protocol: We used an injury model entailing intramuscular injection of 10 μl of notexin (10 μg ml^−1; Latoxan, catalog #L8104) or cardiotoxin (10 μM; Latoxan, catalog #L8102) into the Tibialis anterior (TA) muscle. For cryoinjury, an incision was made in the skin overlying the TA muscle and a copper probe, chilled in liquid nitrogen, was applied to the TA muscle for three 10 s intervals, allowing the muscle to thaw between each application of the cryoprobe. When indicated, 48 hr after injury either 16,16-Dimethyl Prostaglandin E2 (dmPGE2) (13 nmol, Tocris, catalog #4027), Indomethacin (35 μg, Sigma, catalog #17378) or vehicle control (PBS) was injected into the TA muscle. The contralateral TA was used as an internal control, except for the force measurement experiments where each mouse had both legs injured with the same condition and independent mice were used for each condition.
Mice were injured as described in the Muscle injury section. […] Data were collected with a PCI-6251 acquisition card (National Instruments) and analyzed in Matlab. We calculated specific force values by normalizing the force measurements by the muscle physiological cross-sectional areas (PCSAs), which were similar between groups. PCSA (measured in mm^2) was calculated according to the following equation (55): PCSA (mm^2)=[mass (g)×Cos θ]÷[ρ (g/mm^3)×fiber length (mm)], […]

The test system of assay [3] is PGE2 levels of conditioned medium from isolated fibers. Nature of the assay: PGE2 ELISA of conditioned medium from isolated fibers. As to conditions: indomethacin 1 μM, 24 hours. In kind it is cell-based, mouse. The protocol:
For conditioned medium assays, muscle fibers from the extensor digitorum longus (EDL) were isolated as previously described (53). Fibers were cultured in stripped serum medium in the presence or absence of indomethacin (1 μM, Sigma) for 24 hours. Conditioned medium was collected and measured using the PGE2 ELISA Kit (R&D Systems, catalog #KGE004B) and expressed relative to the collected volume (ml). Each sample was assayed in triplicate and in two independent experiments. […]
(In general: ELISA stands for enzyme-linked immunosorbent assay.)

A further assay deals with aged MuSCs. Nature of the assay: Aged MuSC proliferation in culture. It is filed as cell-based, mouse. Particulars: PGE2 10 ng/ml or SW033291 1 μM, 24 hr, assayed at day 7. The protocol: as §1
Proliferation assays: To assay proliferation, we used three different assays (hemocytometer, VisionBlue, and EdU). […] For hemocytometer cell number count, we collected cells at indicated timepoints by incubation with 0.5% trypsin in PBS for 5 min at 37° C. and quantified them using a hemocytometer at least 3 times. Additionally, we used the VisionBlue Quick Cell Viability Fluorometric Assay Kit (BioVision, catalog #K303) as a readout for cell growth in culture. Briefly, we incubated MuSCs with 10% VisionBlue in culture medium for 3 h, and measured fluorescence intensity on a fluorescence plate reader (Infinite M1000 PRO, Tecan) at Ex=530-570 nm, Em=590-620 nm. […] We quantified EdU positive cells using the MetaMorph Image Analysis software (Molecular Devices). Data analyses were blinded, where researchers performing cell scoring were unaware of the treatment condition given to sample groups analyzed.

On to `CC(C(=O)Nc1cc(C#N)ccc1CCCC(=O)O)c1ccc(F)c2ccccc12` (stereo not drawn) [ONO-AE3-208], for which the “proliferation induced by PGE2 in the presence of EP4 antagonist” value in assay [1] was “blunted”.

As for `COc1ccc2c(c1)c(CC(=O)O)c(C)n2C(=O)c1ccc(Cl)cc1` [indomethacin], the “luciferase activity (BLI) of endogenous MuSCs after indomethacin” value in assay [2] is “significant decrease in luciferase activity; also recorded: decline in BLI relative to controls”. For the same molecule, the “reduction in twitch force compared to controls” value in the assay with TA muscle (NSAID (indomethacin) treatment, day 14 post-cardiotoxin) was 33±7%. In the assay with TA muscle (indomethacin into cardiotoxin-injured muscles, day 14 post-injury), the “Twitch force vs control group” value was “significant loss in Twitch force”. For the same molecule, the “PGE2 synthesis by isolated myofibers” value in assay [3] was “markedly reduced”.

As to `CCCC[S+]([O-])c1sc2nc(-c3cccs3)cc(-c3ccccc3)c2c1N` (stereo not drawn) [SW033291], in the assay on aged MuSCs, the “aged MuSC proliferation and Pax7 expression after 1-day pulse” value was “characteristic increase in proliferation and maintenance of Pax7 expression”.
